Measurements from US20140148498A1, “METHODS AND COMPOSITIONS FOR THE TREATMENT OF MARFAN SYNDROME AND ASSOCIATED DISORDERS” (THE JOHNS HOPKINS UNIVERSITY, priority 2011, published 2014).
“Also recorded” adds a separate entry of the source.

Columns and labels:
Fbn1^C1039G/+ mice = test: Aortic root and ascending aortic growth by echocardiography (Examples 6-8); format: in vivo
Description: (§1) All mice were cared for under strict compliance with the Animal Care and Use Committee of the Johns Hopkins University School of Medicine. The Smad4 haploinsufficient mice were a generous gift from Dr. Chuxia Deng (NIH/NIDDK, Bethesda). The Fbn1^C1039G/+ line was maintained on a C57BL/6 background, allowing for valid comparisons. In order to further accommodate the potential for temporal- or background-specific variation in genetic or pharmacological manipulation experiments, all comparisons were made between contemporary littermates. Mice were checked daily for death and all mice found dead were immediately necropsied to assess for evidence of aortic dissection. Mice were killed with an inhalation overdose of halothane (Sigma-Aldrich, St. Louis). Mice underwent immediate laparotomy, descending abdominal aortic transection, and PBS (pH 7.4) infusion through the left ventricle to flush out the blood. For Western blot analysis, the proximal ascending aorta (root to right brachiocephalic trunk) was removed, flash frozen in liquid nitrogen and stored at −80° C. Following PBS infusion, mice analyzed for aortic histology had latex injected under low pressure into the left ventricular apex until it was visible in the descending abdominal aorta. The mice were then fixed for 24 hours in 10% buffered formalin, after which the heart and aorta were removed and stored in 70% ethanol.
Mouse monoclonal TGFβNAb (1d11; R&D Systems, Minneapolis) was reconstituted in PBS and administered via intraperitoneal injection 3 times a week at a dose of 5 mg/kg. Treatment was initiated at 1 month of age and continued for 2 months. IgG (Zymed Laboratories Inc, San Francisco) was reconstituted in PBS, and administered at a dose of 10 mg/kg as a control. SP600125 (Sigma-Aldrich, St. Louis) was reconstituted in 10% DMSO dissolved in PBS, and administered twice daily by intraperitoneal injection, at a dose of 30 mg/kg. Treatment was initiated at 1 month of age and continued for 2 months. 10% DMSO dissolved in PBS was administered as a control. RDEA119 was reconstituted in 10% 2-hydroxypropyl-beta-cyclodextrin (Sigma-Aldrich, St. Louis) dissolved in PBS, and administered twice daily by oral gavage at a dose of 25 mg/kg. Treatment was initiated at 2 months of age and continued for 2 months. 10% 2-hydroxypropyl-beta-cyclodextrin dissolved in PBS was administered as a control. Fasudil was dissolved in drinking water, and administered at a dose of 1 mg/kg body weight per day. Treatment was initiated at 2 months of age and continued for 4 months. Drinking water was administered as a control.
Nair hair removal cream was used on all mice the day prior to echocardiography. All echocardiograms were performed on awake, unsedated mice using the Visualsonics Vevo 660 V1.3.6 imaging system and a 30 MHz transducer. The aorta was imaged using a parasternal long axis view. Three separate measurements of the maximal internal systolic dimension at the sinus of Valsalva and proximal ascending aorta were made, and a mean was calculated. All imaging and measurements were performed by a cardiologist who was blinded to genotype and treatment arm. In the TGFβNAb and SP600125 trials, mice were imaged at 1 month (baseline) and 3 months of age, after which they were killed. In the RDEA119 trial, mice were imaged at 2 months (baseline) and 4 months of age, after which they were killed. In the fasudil trial, mice were imaged at 2 months (baseline) and 6 months of age, after which they were killed. Smad4 haploinsufficient mice were imaged at 1 month, and then every 2 months thereafter, until death or sacrifice.

WT mice = test: Aortic root growth by echocardiography, WT mice (Examples 6-8); format: in vivo
Description: as §1
(§2) Mouse monoclonal TGFβNAb (1d11; R&D Systems, Minneapolis) was reconstituted in PBS and administered via intraperitoneal injection 3 times a week at a dose of 5 mg/kg. Treatment was initiated at 1 month of age and continued for 2 months. IgG (Zymed Laboratories Inc, San Francisco) was reconstituted in PBS, and administered at a dose of 10 mg/kg as a control. […]
(§3) Nair hair removal cream was used on all mice the day prior to echocardiography. […] Three separate measurements of the maximal internal systolic dimension at the sinus of Valsalva and proximal ascending aorta were made, and a mean was calculated. […]

ERK1/2 = test: Western blot of proximal ascending aorta: ERK1/2 activation (Examples 6-8); format: in vivo, mice
Description: as §1, §2
(§4) Protein was extracted using the reagents and protocol from a Total Protein Extraction Kit, in conjunction with a Protein Phosphatase Inhibitor Cocktail (Millipore, MA). […] Equal protein loading of samples was determined by a protein assay (BioRad, CA) and confirmed by probing with antibodies against β-Actin or GAPDH (Sigma, Mo.). […]

Smad2 = test: Western blot of proximal ascending aorta: Smad2 activation (Examples 6-8); format: in vivo; details: Fbn1^C1039G/+ mice, RDEA119 trial, FIG. 16D
Description: as §1, with “Mice underwent immediate laparotomy, descending abdominal aortic transection, and PBS (pH 7.4) infusion through the left ventricle to flush out the blood. For Western blot analysis, the proximal ascending aorta (root to right brachiocephalic trunk) was removed, flash frozen in liquid nitrogen and stored at −80° C.” left out, “The mice were then fixed for 24 hours in 10% buffered formalin, after which the heart and aorta were removed and stored in 70% ethanol.” left out
as §4

JNK1 = test: Western blot of proximal ascending aorta: JNK1 activation (Examples 6-8); format: in vivo, mice
Description: as §1, with “Mice underwent immediate laparotomy, descending abdominal aortic transection, and PBS (pH 7.4) infusion through the left ventricle to flush out the blood. For Western blot analysis, the proximal ascending aorta (root to right brachiocephalic trunk) was removed, flash frozen in liquid nitrogen and stored at −80° C.” left out, “The mice were then fixed for 24 hours in 10% buffered formalin, after which the heart and aorta were removed and stored in 70% ethanol.” left out
as §4

p38 = test: Western blot of proximal ascending aorta: p38 activation (Examples 6-8); format: in vivo; details: Fbn1^C1039G/+ mice, RDEA119 trial, FIG. 16D
Description: as §1, with “Mice underwent immediate laparotomy, descending abdominal aortic transection, and PBS (pH 7.4) infusion through the left ventricle to flush out the blood. For Western blot analysis, the proximal ascending aorta (root to right brachiocephalic trunk) was removed, flash frozen in liquid nitrogen and stored at −80° C.” left out, “The mice were then fixed for 24 hours in 10% buffered formalin, after which the heart and aorta were removed and stored in 70% ethanol.” left out
as §4

ERK5 = test: Western blot of proximal ascending aorta: ERK5 activation (Examples 6-8); format: in vivo; details: Fbn1^C1039G/+ mice, RDEA119 trial, FIG. 16D
Description: as §1, with “Mice underwent immediate laparotomy, descending abdominal aortic transection, and PBS (pH 7.4) infusion through the left ventricle to flush out the blood. For Western blot analysis, the proximal ascending aorta (root to right brachiocephalic trunk) was removed, flash frozen in liquid nitrogen and stored at −80° C.” left out, “The mice were then fixed for 24 hours in 10% buffered formalin, after which the heart and aorta were removed and stored in 70% ethanol.” left out
as §4

[1] = Body weight at the end of the two month RDEA119 trial; format: in vivo; details: WT or Fbn1^C1039G/+ mice, FIG. 25
Description: (§5) Mouse monoclonal TGFβNAb (1d11; R&D Systems, Minneapolis) was reconstituted in PBS and administered via intraperitoneal injection 3 times a week at a dose of 5 mg/kg. Treatment was initiated at 1 month of age and continued for 2 months. IgG (Zymed Laboratories Inc, San Francisco) was reconstituted in PBS, and administered at a dose of 10 mg/kg as a control. SP600125 (Sigma-Aldrich, St. Louis) was reconstituted in 10% DMSO dissolved in PBS, and administered twice daily by intraperitoneal injection, at a dose of 30 mg/kg. Treatment was initiated at 1 month of age and continued for 2 months. 10% DMSO dissolved in PBS was administered as a control. RDEA119 was reconstituted in 10% 2-hydroxypropyl-beta-cyclodextrin (Sigma-Aldrich, St. Louis) dissolved in PBS, and administered twice daily by oral gavage at a dose of 25 mg/kg. Treatment was initiated at 2 months of age and continued for 2 months. 10% 2-hydroxypropyl-beta-cyclodextrin dissolved in PBS was administered as a control. Fasudil was dissolved in drinking water, and administered at a dose of 1 mg/kg body weight per day. Treatment was initiated at 2 months of age and continued for 4 months. Drinking water was administered as a control. […]

[2] = test system: S4^+/−:Fbn1^C1039G/+ mice; test: Aortic root and ascending aortic growth by echocardiography, Smad4 haploinsufficient MFS mice; format: in vivo
Description: as §1
as §5, with “months.” for “months. Drinking water was administered as a control.”
as §3

[3] = test system: S4^+/−:Fbn1^C1039G/+ mice; test: Survival (premature death due to aortic dissection); format: in vivo
Description: as §1, with “ethanol. […]” for “ethanol.”

[4] = test system: abdominal aortic aneurysm induced by the periaortic application of calcium chloride; details: prior work (Yoshimura et al. 2005), in association with reduced JNK1 activation; cited from earlier work
[5] = 25 mg/kg twice daily oral gavage, 2 to 4 months of age, FIG. 16C
[6] = RDEA119 trial, 2 months of treatment
[7] = Fbn1^C1039G/+ mice, RDEA119 trial, FIG. 16D
[8] = 30 mg/kg twice daily i.p., 1 to 3 months of age, FIG. 23A
[9] = WT and Fbn1^C1039G/+ mice after two weeks of therapy, FIG. 24

For `COc1cc(F)c(F)c(Nc2ccc(I)cc2F)c1NS(=O)(=O)C1(C[C@H](O)CO)CC1` [RDEA119], which “Final absolute aortic root diameter” value (Fbn1^C1039G/+ mice; [5]) is on record?
Its value is 1.94+/−0.07 mm.

What about the Aortic root growth (Fbn1^C1039G/+ mice; [6]) of the same compound?
Its Aortic root growth is “selectively reduced growth; also recorded: significantly less than that of placebo-treated”.

What about the “Final absolute aortic root diameter” value (WT mice; [5]) of the same compound?
The value was 1.64+/−0.09 mm.

What about the Aortic root growth (WT mice; [6]) of the same compound?
The Aortic root growth was “no significant effect”.

And the ERK1/2 activation (ERK1/2; [7])?
Its ERK1/2 activation is “selective reduction in pERK1/2 signaling; also recorded: significant reduction in ERK1/2 activation”.

And the Smad2 activation (Smad2)?
The Smad2 activation was “unchanged”.

What about the JNK1 activation (JNK1; [7]) of the same compound?
Its JNK1 activation is “unchanged”.

What about the p38 activation (p38) of the same compound?
Its p38 activation is “unchanged”.

What about the ERK5 activation (ERK5) of the same compound?
The ERK5 activation was “unchanged”.

And the “Weight (somatic growth) at the end of the two month trial” value [1]?
The value was “does not significantly affect somatic growth; also recorded: did not significantly affect the weight”.

For `O=C1c2ccccc2-c2n[nH]c3cccc1c23` [SP600125], which “Final absolute aortic root diameter” value (Fbn1^C1039G/+ mice; [8]) is on record?
Its value is 1.97+/−0.16 mm.

And the “Final absolute ascending aortic diameter” value (Fbn1^C1039G/+ mice; [8])?
Its value is 1.38+/−0.06 mm.

And the Aortic root growth (Fbn1^C1039G/+ mice; SP600125 trial, versus placebo)?
The Aortic root growth was “decreased aortic root growth; also recorded: ameliorated their aortic root growth”.

And the “Final absolute aortic root diameter” value [2, 8]?
Its value is 2.09+/−0.16 mm.

What about the “Final absolute ascending aortic diameter” value [2, 8] of the same compound?
Its value is 1.47+/−0.14 mm.

What about the Aortic root growth ([2]; SP600125 trial, versus placebo) of the same compound?
The Aortic root growth was “decreased aortic root growth; also recorded: significant reduction”.

And the Ascending aortic growth ([2]; SP600125 trial, versus placebo)?
The Ascending aortic growth was “reduced ascending aortic growth; also recorded: significant reduction”.

And the “Mice still alive at 3 months of age” value ([3]; 50% of placebo-treated had died)?
Its value is “all”.

What about the “Premature death due to aortic dissection” value ([3]; FIG. 23B) of the same compound?
Its value is “prevention of premature death; also recorded: prevented the premature death”.

What about the ERK1/2 activation (ERK1/2; [9]) of the same compound?
Its ERK1/2 activation is “no change in ERK1/2 activation; also recorded: remained unaffected”.

What about the JNK1 activation (JNK1; [9]) of the same compound?
The JNK1 activation was “significant reduction in JNK1 activation; also recorded: reduction of JNK1 activation to levels below baseline”.

What about the Abdominal aortic aneurysm [4] of the same compound?
The Abdominal aortic aneurysm was “ameliorate abdominal aortic aneurysm”.
